Measured values reported in patent publication US20180311611A1, “ABSORBENT FOR THE SELECTIVE REMOVAL OF HYDROGEN SULFIDE” (BASF SE, priority 2015, published 2018).
Read-outs that look alike come from different tables or passages of the source.

Tests used:
[1] = physchem
From the text: (§1) The pKA values are suitably determined in aqueous solution with an amine concentration of 0.01 mol/kg at the given temperature by determining the pH at the point of half-equivalence of the dissociation stage under consideration by means of addition of hydrochloric acid (1st dissociation stage 0.005 mol/kg; 2nd dissociation stage: 0.015 mol/kg; 3rd dissociation stage: 0.025 mol/kg). Measurement is accomplished using a thermostated closed jacketed vessel in which the liquid was blanketed with nitrogen. The Hamilton Polylite Plus 120 pH electrode was used, which was calibrated with pH 7 and pH 12 buffer solutions.

[2] = pKA determination of amines by pH at half-equivalence with hydrochloric acid; details: for pKA (120° C.) / pKA (50° C.): aqueous solution, amine 0.01 mol/kg; for ΔpKA (120 − 50° C.): difference between 120° C. and 50° C.
From the text: as §1

SMILES | pKa ([1]; aqueous solution of the amine) | pKA (120° C.) ([2]; dissociation stage pKA1) | ΔpKA (120 − 50° C.) ([2]; dissociation stage pKA1) | pKA (50° C.) ([2]; dissociation stage pKA2) | pKA (120° C.) ([2]; dissociation stage pKA2) | ΔpKA (120 − 50° C.) ([2]; dissociation stage pKA2) | pKA (50° C.) ([2]; dissociation stage pKA3) | pKA (120° C.) ([2]; dissociation stage pKA3) | ΔpKA (120 − 50° C.) ([2]; dissociation stage pKA3) | pKa [1] | pKA (50° C.) ([2]; dissociation stage pKA1)
CN(C)CCCN(CCO)CCCN(C)C [Hydroxyethylbis(dimethylaminopropyl)amine] | 10.1 | 8.63 | 1.51 | 10.13 | 8.62 | 1.51 | 10.12 | 8.69 | 1.43 | – | –
CN(C)C1CCC(N(C)C)CC1 (stereo not shown) [1,4-Bis(dimethylamino)cyclohexane] | 9.8 | 8.17 | 1.63 | 8.01 | 6.67 | 1.34 | – | – | – | – | –
CN(C)C1CCCCC1 [Cyclohexyl-N,N-dimethylamine] | – | – | – | – | – | – | – | – | – | 10 | –
CN(C)CCCN1CN(CCCN(C)C)CN(CCCN(C)C)C1 [N,N,N′,N′,N″,N″-Hexamethyl-1,3,5-triazine-1,3,5(2H,4H,6H)-tripropanamine] | 11.2 | 9.78 | 1.59 | – | 9.35 | 1.88 | 10.45 | 7.97 | 2.48 | – | 11.37
